# Measurements reported in US10440947B2, “Aqueous solution for preserving an organ and uses during hypothermic ischemia” (UNIVERSITE CLAUDE BERNARD LYON I, priority 2013, dated 2019).
# Experiments:
# isolated whole rat heart [1] = assay: Myocardial necrosis (size of infarctus, TTC dye) of isolated rat heart after cold ischemia-reperfusion; conditions: 1 μM in Celsior solution, 8 h cold ischemia at 4° C. then reperfusion
# Experimental: The rats were anesthetized by intraperitoneal injection of sodium pentobarbital (50 milligrams per kilogram (mg/kg)). They were then placed in dorsal decubitus. After isolating the femoral vein, heparin was administered intravenously (200 IU/kg). An abdominal incision was made, followed by a thoracic incision. The sternum was pulled towards the rat's head, using a clamp, and the diaphragm was dissected. The heart isolated from its pericardium was excised and stopped in the hypothermic Celsior solution. […] The hearts were then placed at 4° C. in the same solution for 8 h (the cold ischemia stage), prior to reperfusion (the reanimation stage). After 8 h of cold ischemia, each heart was fastened by its aorta to a cannula for continuous retrograde perfusion using Krebs Henseleit (KH, having the following composition in mM: glucose 11.0; NaCl 118.5: KCl 4.75; MgSO4 1.19, KH2PO4 1.2; NaHCO3 24.0; CaCl2 1.4). A constant pressure of 100 centimeters (cm) of H2O (corresponding to 74 millimeters of mercury (mmHg)) was imposed. […] For each slice, the ratio AN/AR was expressed as a percentage, representing the size of the infarctus. The sum of the infarctuses in all of the sections belonging to the same left ventricle gave the quantity of necrosis for the heart in question. […] At the end of cold ischemia, the hearts were reperfused and the size of infarctus was analyzed histologically after using TTC dye.
# [2] = tested on: rat primary cardiomyocytes; assay: MTT viability of rat primary cardiomyocytes after cold ischemia-reperfusion; format: cell-based
# Experimental: (§1) MTT, or […] (Sigma), is a molecule that bonds to mitochondrial dehydrogenases (DH) in the presence of oxidized nicotimamide adenine dinucleotide and nicotimamide adenine dinucleotide phosphate (NAD+ and NADP+) coenzymes to form insoluble formazan crystals of violet color. The resulting violet color is evidence of mitochrondrial function and thus of cell viability. The crystals were dissolved in a permeabilization solution (dimethyl sulfoxide or DMSO, Sigma). This solubilization of formazan also gives rise to cell lysis. The plates were read by spectrophotometry (Multiskan Ex, Thermo, Electron Corporation®) at 550 nanometers (nm).
# (§2) The purpose of this protocol was to determine the potentially protective effect of cyclosporin and/or taxol on cardiomyocytes placed in a cold ischemia situation at 4° C. for 24 hours (h), followed by reperfusion for 24 h, at the end of which the viability test (the MTT test) was performed. A “sham” group was not subjected to the ischemia—reperfusion sequence. At each of the doses tested, four different experiments were performed, and during each experiment, eight different cell wells were tested simultaneously.
# (§3) Statistical analysis consisted in comparing means (Student's test between the group under study and the control group).
# H9c2 cardiomyocytes = assay: MTT viability of H9c2 cardiomyocytes after cold ischemia-reperfusion; format: cell-based, rat
# Experimental: This was a conventional model for culturing rat cardiomyocytes. The H9c2 cardiac cells (ATTC®) came from rat heart ventricles transfected with a pSV3 plasmid containing the SV40 gene. The cells were cultivated in high glucose Dulbecco's modified Eagle's medium (DMEM) (PAA®), with an additional 10% of Mycoplex FBS (PAA®) and 1% penicillin-streptomycin. The medium was changed every two days and re-seeding was performed at 70%-80% confluence.
# as §1, §2, §3
# The viability of primary cardiomyocytes was evaluated after 24 h of cold ischemia and 24 h of reperfusion.
# As before, the viability of H9c2 cardiomyocytes was evaluated after 24 h cold ischemia and 24 h reperfusion.
# isolated whole rat heart [3] = assay: Functional recovery (LVDevP×HR) of perfused isolated rat heart (Langendorff mode) after cold ischemia-reperfusion; conditions: 1 μM in Celsior solution; 8 h cold ischemia at 4° C. + 1 h reperfusion at 37° C.; p<0.01
# Experimental: The rats were anesthetized by intraperitoneal injection of sodium pentobarbital (50 milligrams per kilogram (mg/kg)). They were then placed in dorsal decubitus. After isolating the femoral vein, heparin was administered intravenously (200 IU/kg). An abdominal incision was made, followed by a thoracic incision. The sternum was pulled towards the rat's head, using a clamp, and the diaphragm was dissected. The heart isolated from its pericardium was excised and stopped in the hypothermic Celsior solution. […] The hearts were then placed at 4° C. in the same solution for 8 h (the cold ischemia stage), prior to reperfusion (the reanimation stage).
# After 8 h of cold ischemia, each heart was fastened by its aorta to a cannula for continuous retrograde perfusion using Krebs Henseleit (KH, having the following composition in mM: glucose 11.0; NaCl 118.5: KCl 4.75; MgSO4 1.19, KH2PO4 1.2; NaHCO3 24.0; CaCl2 1.4). A constant pressure of 100 centimeters (cm) of H2O (corresponding to 74 millimeters of mercury (mmHg)) was imposed. The KH solution was bubbled continuously with 95% O2+5% CO2, in order to maintain its pH at 7.4.
# A latex balloon was installed in the left ventricle and connected to a pressure sensor previously calibrated by internal calibration (0 to 200 mmHg). At the beginning of reperfusion, the balloon was inflated in order to obtain a telediastolic pressure of about 5 mmHg. […]
# [4] = 1 μM, 5 μM and 10 μM in MM, 24 h cold ischemia + 24 h reperfusion
# [5] = tested 0.25-10 μM in St. Thomas basal solution, 24 h cold ischemia + 24 h reperfusion
smiles,measurement,setting,value
"CC(=O)O[C@H]1C(=O)[C@@]2(C)[C@H]([C@H](OC(=O)c3ccccc3)[C@]3(O)C[C@H](OC(=O)[C@H](O)[C@@H](NC(=O)c4ccccc4)c4ccccc4)C(C)=C1C3(C)C)[C@]1(OC(C)=O)CO[C@@H]1C[C@@H]2O [taxol, paclitaxel]","size of infarctus (AN/AR), % of the zone at risk",isolated whole rat heart [1],8.7%
same,"cardioprotective effect when added singly to LYPS, relative to ""MM"" reference group",[2]; [4],adds nothing in terms of cardioprotective effect
same,cardiomyocyte viability increased (MTT) relative to control group,"[2]; agent at optimum concentration around 1 μM in St. Thomas basal solution, 24 h cold ischemia at 4° C. + 24 h reperfusion, p<0.01",about 25%
same,optimum concentration for increasing cardiomyocyte viability,[2]; [5],around 1 μM
same,"cardioprotective effect when added singly to LYPS, relative to ""MM"" reference group",H9c2 cardiomyocytes; [4],adds nothing in terms of cardioprotective effect
same,cardiomyocyte viability increased (MTT) relative to control group,"H9c2 cardiomyocytes; agent at optimum concentration around 1 μM in St. Thomas basal solution, 24 h cold ischemia at 4° C. + 24 h reperfusion, p<0.001",about 90%
same,optimum concentration for increasing cardiomyocyte viability,H9c2 cardiomyocytes; [5],around 1 μM
same,improvement in LVDevP×HR compared with the control group,isolated whole rat heart [3],25%
